Where two headings read alike, the source gives them in different places.
Biological target: human TRPA1 channel (Homo sapiens (Human), UniProt O75762)
Assay: hTRPA1 CHO Ca2+ FLIPR Tetra assay: block of cinnamaldehyde induced calcium influx
Type: cell-based
Conditions: CHO cells expressing TRPA1, Hill coefficient fixed to 1.5
Experimental: CHO cells expressing TRPA1 were plated into 384-well plates, incubated overnight at 37° C., and loaded with BD calcium indicator dye for 1 hr at 37° C. followed by 15 minutes at room temperature. The assay buffer was Hank's Balanced Salt Solution (HBSS) containing 20 mM HEPES (pH readjusted to 7.4) along with 0.02% BSA.
Following dye load and plate cool down, compounds were added to the cells using FLIPR Tetra. Plates were then incubated with compounds for 10 minutes or 90 minutes at room temperature prior to adding agonist. Following this incubation, about an EC80 concentration of cinnamaldehyde […] was added to active the channels and block of cinnamaldehyde induced calcium influx was measured.
Fixing the Hill coefficient will generally reduce variability of the IC50 determination. The IC50 results were individually examined to make sure the MIN and MAX points were set correctly prior to validation of the results.

[1] = read-out: hTRPA1 IC50 10 min, 10 minutes incubation with compound before cinnamaldehyde (about EC80)
[2] = read-out: hTRPA1 IC50 90 min, 90 minutes incubation with compound before cinnamaldehyde (about EC80)
[3] = hTRPA1 IC50 10 min, 10 minutes incubation with compound before cinnamaldehyde (about EC80)
[4] = hTRPA1 IC50 90 min, 90 minutes incubation with compound before cinnamaldehyde (about EC80)

human TRPA1 channel, sequence (O75762 whole entry): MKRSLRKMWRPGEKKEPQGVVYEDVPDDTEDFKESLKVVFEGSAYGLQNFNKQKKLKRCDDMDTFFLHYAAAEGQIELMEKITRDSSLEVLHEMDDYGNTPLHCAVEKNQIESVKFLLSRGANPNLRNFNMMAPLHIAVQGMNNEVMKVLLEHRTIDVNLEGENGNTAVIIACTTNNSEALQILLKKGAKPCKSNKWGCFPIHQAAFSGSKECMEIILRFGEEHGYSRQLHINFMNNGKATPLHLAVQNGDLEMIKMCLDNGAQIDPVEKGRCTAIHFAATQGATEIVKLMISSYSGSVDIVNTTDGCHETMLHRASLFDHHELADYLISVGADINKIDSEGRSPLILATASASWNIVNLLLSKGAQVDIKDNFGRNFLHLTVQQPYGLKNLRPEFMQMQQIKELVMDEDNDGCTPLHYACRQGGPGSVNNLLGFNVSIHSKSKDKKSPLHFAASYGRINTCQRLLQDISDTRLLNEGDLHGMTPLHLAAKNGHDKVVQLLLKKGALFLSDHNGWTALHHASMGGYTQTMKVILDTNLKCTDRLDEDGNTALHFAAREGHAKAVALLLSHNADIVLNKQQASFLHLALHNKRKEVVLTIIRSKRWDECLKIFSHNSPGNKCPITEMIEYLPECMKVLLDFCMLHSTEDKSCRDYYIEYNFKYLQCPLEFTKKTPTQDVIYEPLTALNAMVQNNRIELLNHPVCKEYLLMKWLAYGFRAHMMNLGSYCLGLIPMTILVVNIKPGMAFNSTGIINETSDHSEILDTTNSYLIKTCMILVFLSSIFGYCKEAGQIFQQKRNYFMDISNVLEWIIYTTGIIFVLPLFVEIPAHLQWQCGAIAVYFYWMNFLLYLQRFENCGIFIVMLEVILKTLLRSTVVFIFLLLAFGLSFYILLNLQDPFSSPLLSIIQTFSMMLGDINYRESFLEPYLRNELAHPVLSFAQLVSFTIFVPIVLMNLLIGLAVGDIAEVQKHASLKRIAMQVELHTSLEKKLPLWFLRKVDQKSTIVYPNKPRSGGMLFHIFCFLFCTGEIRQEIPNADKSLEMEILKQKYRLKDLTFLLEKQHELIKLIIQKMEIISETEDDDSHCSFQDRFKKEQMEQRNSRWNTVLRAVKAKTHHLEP

| SMILES | IC50 [1] [nM] | IC50 [2] [nM] | IC50 [3] [nM] | IC50 [4] [nM] |
| --- | --- | --- | --- | --- |
| Cn1cnc2ncn(Cc3nc([C@@H]4CO[C@@H](c5ccc(S(F)(F)(F)(F)F)cc5)C4)no3)c(=O)c21 [Example 86, 7-methyl-1-((3-((3R,5R)-5-(4-(pentafluoro-l6-sulfanyl)phenyl)tetrahydro-furan-3-yl)-1,2,4-oxadiazol-5-yl)methyl)-1,7-dihydro-6H-purin-6-one] | 1560 | 930 |  |  |
| Cn1nnc2ccn(Cc3nc([C@@H]4CO[C@@H](c5ccc(F)cc5)C4)no3)c(=O)c21 (racemic) [Example 106, 3-methyl-5-[[3-[rac-(3R,5R)-5-(4-fluorophenyl)tetrahydro-furan-3-yl]-1,2,4-oxadiazol-5-yl]methyl] triazolo[4,5-c]pyridin-4-one] |  |  | 6.9 | 5.6 |
| Cn1cnc2ncn(Cc3nc([C@@H]4CO[C@@H](c5ccc6ncsc6c5)C4)no3)c(=O)c21 [Example 53, 1-((3-((3R,5R)-5-(benzo[d]thiazol-6-yl)tetrahydrofuran-3-yl)-1,2,4-oxadiazol-5-yl)methyl)-7-methyl-1,7-dihydro-6H-purin-6-one] | 146 | 88 |  |  |
| Cn1ncc2nc(N)n(Cc3nc([C@@H]4CO[C@@H](c5ccc(Cl)cc5)C4)no3)c(=O)c21 [Example 150, 5-amino-6-((3-((3R,5R)-5-(4-chlorophenyl)tetrahydro-furan-3-yl)-1,2,4-oxadiazol-5-yl)methyl)-1-methyl-1,6-dihydro-7H-pyrazolo[4,3-d] pyrimidin-7-one] | 3.19 | 1.7 |  |  |
| Cn1nncc1C(=O)NCc1nc([C@@H]2CO[C@@H](c3ccc(Cl)cc3)C2)no1 [Example 121, N-((3-((3R,5R)-5-(4-chlorophenyl)tetrahydro-furan-3-yl)-1,2,4-oxadiazol-5-yl)methyl)-1-methyl-1H-1,2,3-triazole-5-carboxamide] | 111 | 49 |  |  |
| Cc1nc2nc(Cl)n(C)c2c(=O)n1Cc1nc([C@@H]2CO[C@@H](c3ccc(Cl)cc3)C2)no1 [Example 114, 8-chloro-1-((3-((3R,5R)-5-(4-chlorophenyl)tetrahydrofuran-3-yl)-1,2,4-oxadiazol-5-yl)methyl)-2,7-dimethyl-1,7-dihydro-6H-purin-6-one] | 37.8 | 22 |  |  |
| Cc1cnc(N)n(Cc2nc([C@@H]3CO[C@@H](c4ccc(Cl)cc4)C3)no2)c1=O [Example 128, 2-amino-3-((3-((3R,5R)-5-(4-chlorophenyl)tetra-hydrofuran-3-yl)-1,2,4-oxadiazol-5-yl)methyl)-5-methylpyrimidin-4(3H)-one] | 146 | 67 |  |  |
| Cc1nc(Br)n2ncn(Cc3nc([C@@H]4CO[C@@H](c5ccc(Cl)cc5)C4)no3)c(=O)c12 (racemic) [Example 107, 7-bromo-5-methyl-3-[[3-[rac-(3R,5R)-5-(4-chlorophenyl)tetrahydro-furan-3-yl]-1,2,4-oxadiazol-5-yl]methyl] imidazo[5,1-f][1,2,4] triazin-4-one] |  |  | 0.8 | 0.3 |
| Nc1nccc2c(=O)n(Cc3nc([C@@H]4CO[C@@H](c5ccc(Cl)cc5)C4)no3)cnc12 (racemic) [Example 108, 8-amino-3-[[3-[rac-(3R,5R)-5-(4-chlorophenyl)tetrahydro-furan-3-yl]-1,2,4-oxadiazol-5-yl]methyl]pyrido[3,4-d] pyrimidin-4-one] |  |  | 76.9 | 57 |
| O=C1CCc2c(ncn(Cc3nc([C@@H]4CO[C@@H](c5ccc(Cl)cc5)C4)no3)c2=O)N1 [Example 118, 3-((3-((3R,5R)-5-(4-chlorophenyl)tetrahydro-furan-3-yl)-1,2,4-oxadiazol-5-yl)methyl)-5,8-dihydropyrido[2,3-d] pyrimidine-4,7(3H,6H)-dione] | 96.4 | 47 |  |  |
| Cc1ccnc2ncn(Cc3nc([C@@H]4CO[C@@H](c5ccc(F)cc5)C4)no3)c(=O)c12 [Example 20, 3-((3-((3R,5R)-5-(4-fluorophenyl)tetrahydro-furan-3-yl)-1,2,4-oxadiazol-5-yl)methyl)-5-methylpyrido[2,3-d]pyrimidin-4(3H)-one] | 7.05 | 3.6 |  |  |
| Cn1nnc2nc(N)n(Cc3nc([C@@H]4CO[C@@H](c5ccc(Cl)cc5)C4)no3)c(=O)c21 (racemic) [Example 156, 5-amino-1-methyl-6-[[3-[rac-(3R,5R)-5-(4-chlorophenyl)tetrahydro-furan-3-yl]-1,2,4-oxadiazol-5-yl]methyl]triazolo[4,5-d]pyrimidin-7-one] |  |  | 16.1 | 2.1 |
| Cn1cnc2ncn(Cc3nc([C@@H]4CO[C@@H](c5ccc(-c6ccccc6)cc5)C4)no3)c(=O)c21 [Example 30, 1-((3-((3R,5R)-5-[(1,1′-biphenyl]-4-yl)tetrahydrofuran-3-yl)-1,2,4-oxadiazol-5-yl)methyl)-7-methyl-1,7-dihydro-6H-purin-6-one] | 623 | 370 |  |  |
| Cn1nnc2ccn(Cc3nc([C@@H]4CO[C@@H](c5ccc(Cl)cc5)C4)no3)c(=O)c21 [Example 61, 5-((3-((3R,5R)-5-(4-chlorophenyl)tetrahydro-furan-3-yl)-1,2,4-oxadiazol-5-yl)methyl)-3-methyl-3,5-dihydro-4H-[1,2,3]triazolo[4,5-c]pyridin-4-one] | 4.65 | 2.1 |  |  |
| Cc1nc2ncn(C)c2c(=O)n1Cc1nc([C@@H]2CO[C@@H](c3ccc(Cl)cc3)C2)no1 [Example 8, 1-((3-((3R,5R)-5-(4-chlorophenyl)tetrahydrofuran-3-yl)-1,2,4-oxadiazol-5-yl)methyl)-2,7-dimethyl-1H-purin-6(7H)-one] |  | 4.1 | 9.38 |  |
| Cn1cnc2ccn(Cc3nc([C@@H]4CO[C@@H](c5ccc(Cl)cc5)C4)no3)c(=O)c21 [Example 39, 5-((3-((3R,5R)-5-(4-chlorophenyl)tetrahydro-furan-3-yl)-1,2,4-oxadiazol-5-yl)methyl)-3-methyl-3,5-dihydro-4H-imidazo[4,5-c]pyridin-4-one] | 3.06 | 0.42 |  |  |
| O=c1c2cccnc2ncn1Cc1nc([C@@H]2CO[C@@H](c3ccc(Cl)cc3)C2)no1 [Example 25, 3-((3-((3R,5R)-5-(4-chlorophenyl)tetrahydro-furan-3-yl)-1,2,4-oxadiazol-5-yl)methyl)pyrido[2,3-d]pyrimidin-4(3H)-one] | 6.55 | 5.7 |  |  |
| Nc1nc2ncsc2c(=O)n1Cc1nc([C@@H]2CO[C@@H](c3ccc(Cl)cc3)C2)no1 (racemic) [Example 158, 5-amino-6-[[3-[rac-(3R,5R)-5-(4-chlorophenyl)tetrahydro-furan-3-yl]-1,2,4-oxadiazol-5-yl]methyl]thiazolo[4,5-d]pyrimidin-7-one] |  |  | 5.73 | 1.4 |
| O=c1ccn2c(=O)n(Cc3nc([C@@H]4CO[C@@H](c5ccc(Cl)cc5)C4)no3)ccc2n1 (racemic) [Example 99, 7-[[3-[rac-(3R,5R)-5-(4-chlorophenyl)tetrahydro-furan-3-yl]-1,2,4-oxadiazol-5-yl]methyl]pyrimido[1,6-a]pyrimidine-2,6-dione] |  |  | 15.4 | 7.2 |
| Cc1nc2[nH]c(=O)n(C)c2c(=O)n1Cc1nc([C@@H]2CO[C@@H](c3ccc(Cl)cc3)C2)no1 [Example 111, 1-((3-((3R,5R)-5-(4-chlorophenyl)tetrahydro-furan-3-yl)-1,2,4-oxadiazol-5-yl)methyl)-2,7-dimethyl-7,9-dihydro-1H-purine-6,8-dione] | 85.8 | 34 |  |  |
| Nc1nc2ncccc2c(=O)n1Cc1nc([C@@H]2CO[C@@H](c3ccc(Cl)cc3)C2)no1 [Example 62, 2-amino-3-((3-((3R,5R)-5-(4-chlorophenyl)tetrahydrofuran-3-yl)-1,2,4-oxadiazol-5-yl)methyl)pyrido[2,3-d] pyrimidin-4(3H)-one] | 8.29 | 2.7 |  |  |
| Cn1c(N)nc2ncn(Cc3nc([C@@H]4CO[C@@H](c5ccc(F)cc5)C4)no3)c(=O)c21 [Example 22, 8-amino-1-((3-((3R,5R)-5-(4-fluorophenyl)tetrahydro-furan-3-yl)-1,2,4-oxadiazol-5-yl)methyl)-7-methyl-1,7-dihydro-6H-purin-6-one] | 126 | 19 |  |  |
| Cc1nc(Cl)n2ncn(Cc3nc([C@@H]4CO[C@@H](c5ccc(Cl)cc5)C4)no3)c(=O)c12 (racemic) [Example 93, 7-chloro-5-methyl-3-[[3-[rac-(3R,5R)-5-(4-chlorophenyl)tetrahydro-furan-3-yl]-1,2,4-oxadiazol-5-yl]methyl] imidazo[5,1-f][1,2,4] triazin-4-one] |  |  |  | 13 |
| Cn1cnc2ncn(Cc3nc([C@@H]4CO[C@@](C)(c5ccc(Cl)cc5)C4)no3)c(=O)c21 [Example 42, 1-((3-((3R,5R)-5-(4-chlorophenyl)-5-methyltetrahydrofuran-3-yl)-1,2,4-oxadiazol-5-yl)methyl)-7-methyl-1,7-dihydro-6H-purin-6-one] | 3710 | 2200 |  |  |
| O=c1c2cccc(=O)n2cnn1Cc1nc([C@@H]2CO[C@@H](c3ccc(Cl)cc3)C2)no1 [Example 82, 2-((3-((3R,5R)-5-(4-chlorophenyl)tetrahydro-furan-3-yl)-1,2,4-oxadiazol-5-yl)methyl)-2H-pyrido [1,2-d][1,2,4]triazine-1,6-dione] |  | 2.4 |  |  |
